# Data reported in ChEMBL document CHEMBL3632552, “Discovery of (phenoxy-2-hydroxypropyl)piperidines as a novel class of voltage-gated sodium channel 1.7 inhibitors” (Bioorg Med Chem Lett, 2015).
# Molecular target: Sodium channel protein type 5 subunit alpha (Homo sapiens, UniProt Q14524)
# Experiment: Inhibition of human NaV1.5 by IonWorks quattro automated electrophysiology assay
# Settings: not given
# Chain of Sodium channel protein type 5 subunit alpha (Q14524 whole entry): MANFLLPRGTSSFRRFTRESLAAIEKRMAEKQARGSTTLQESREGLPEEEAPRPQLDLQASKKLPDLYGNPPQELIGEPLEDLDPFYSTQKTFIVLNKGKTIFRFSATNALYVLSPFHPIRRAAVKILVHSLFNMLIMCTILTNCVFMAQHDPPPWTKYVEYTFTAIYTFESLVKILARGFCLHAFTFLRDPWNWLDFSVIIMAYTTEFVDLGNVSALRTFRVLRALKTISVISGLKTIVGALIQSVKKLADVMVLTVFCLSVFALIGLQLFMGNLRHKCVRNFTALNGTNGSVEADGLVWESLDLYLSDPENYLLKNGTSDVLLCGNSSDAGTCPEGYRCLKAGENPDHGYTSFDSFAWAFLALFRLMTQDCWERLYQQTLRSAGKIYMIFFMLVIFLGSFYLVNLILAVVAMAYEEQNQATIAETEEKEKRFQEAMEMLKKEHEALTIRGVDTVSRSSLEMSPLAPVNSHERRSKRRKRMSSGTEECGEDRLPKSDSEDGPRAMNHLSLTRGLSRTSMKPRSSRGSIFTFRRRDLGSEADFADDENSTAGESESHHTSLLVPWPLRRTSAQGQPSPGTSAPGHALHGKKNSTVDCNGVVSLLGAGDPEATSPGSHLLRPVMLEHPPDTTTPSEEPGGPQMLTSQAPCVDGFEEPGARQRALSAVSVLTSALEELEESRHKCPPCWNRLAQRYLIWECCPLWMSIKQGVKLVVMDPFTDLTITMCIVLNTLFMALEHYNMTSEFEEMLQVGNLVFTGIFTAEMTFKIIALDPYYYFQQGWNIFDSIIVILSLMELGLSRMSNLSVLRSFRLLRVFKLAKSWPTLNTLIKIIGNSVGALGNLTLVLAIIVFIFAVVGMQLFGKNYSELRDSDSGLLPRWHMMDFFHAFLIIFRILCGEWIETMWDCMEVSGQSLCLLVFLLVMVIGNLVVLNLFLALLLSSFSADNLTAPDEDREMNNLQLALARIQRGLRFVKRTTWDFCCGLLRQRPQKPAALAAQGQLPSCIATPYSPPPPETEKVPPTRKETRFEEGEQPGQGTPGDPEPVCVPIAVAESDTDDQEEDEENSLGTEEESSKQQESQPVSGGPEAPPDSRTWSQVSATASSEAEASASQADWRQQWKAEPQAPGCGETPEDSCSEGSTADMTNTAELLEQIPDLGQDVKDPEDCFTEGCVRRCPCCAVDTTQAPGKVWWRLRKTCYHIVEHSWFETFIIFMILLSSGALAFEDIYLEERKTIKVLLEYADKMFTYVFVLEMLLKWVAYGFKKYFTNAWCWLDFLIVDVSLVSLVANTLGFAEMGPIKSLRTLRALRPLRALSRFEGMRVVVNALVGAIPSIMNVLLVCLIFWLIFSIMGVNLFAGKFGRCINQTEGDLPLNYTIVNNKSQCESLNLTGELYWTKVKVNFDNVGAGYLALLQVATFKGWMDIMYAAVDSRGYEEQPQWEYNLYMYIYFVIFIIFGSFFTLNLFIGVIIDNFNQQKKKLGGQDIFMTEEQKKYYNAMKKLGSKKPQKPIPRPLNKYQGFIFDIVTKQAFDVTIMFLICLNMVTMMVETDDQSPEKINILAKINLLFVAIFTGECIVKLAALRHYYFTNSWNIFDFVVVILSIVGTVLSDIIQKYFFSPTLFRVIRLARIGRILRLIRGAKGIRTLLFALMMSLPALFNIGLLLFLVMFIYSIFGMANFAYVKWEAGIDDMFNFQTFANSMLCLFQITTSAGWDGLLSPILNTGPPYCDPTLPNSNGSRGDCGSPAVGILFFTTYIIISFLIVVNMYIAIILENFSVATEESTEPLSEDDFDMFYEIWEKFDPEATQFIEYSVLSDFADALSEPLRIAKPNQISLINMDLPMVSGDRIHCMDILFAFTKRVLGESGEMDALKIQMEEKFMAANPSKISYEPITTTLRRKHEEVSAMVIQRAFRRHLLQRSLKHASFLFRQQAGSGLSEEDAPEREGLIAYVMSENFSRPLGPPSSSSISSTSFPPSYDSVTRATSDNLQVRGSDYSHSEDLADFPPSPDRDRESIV
row,Structure (SMILES),IC50 [nM]
1,O=C(c1ccccc1)c1ccc(OCC(O)CN2CCC(N3Cc4ccccc4C3=O)CC2)cc1 (configuration not stated),1200
2,O=C1c2ccccc2CN1C1CCN(CC(O)COc2cccc(C(F)(F)F)c2)CC1 (configuration not stated),4400
3,O=C1c2ccccc2CN1C1CCN(CC(O)COc2ccc(C(F)(F)F)cc2)CC1 (configuration not stated),2800
4,COc1cc(C(F)(F)F)ccc1OCC(O)CN1CCC(N2Cc3ccccc3C2=O)CC1 (configuration not stated),5600
5,O=C1c2ccccc2CN1C1CCN(CC(O)COCc2ccc(C(F)(F)F)cc2)CC1 (configuration not stated),3000
6,COc1cc(C(F)(F)F)ccc1COCC(O)CN1CCC(N2Cc3ccccc3C2=O)CC1.O=C(O)/C=C/C(=O)O (configuration not stated),6100
7,O=C(NC1CCN(CC(O)COc2ccc(C(F)(F)F)cc2)CC1)c1ccccc1 (configuration not stated),1100
8,O=C(Nc1ccccc1)C1CCN(CC(O)COc2ccc(C(F)(F)F)cc2)CC1 (configuration not stated),3400
9,COc1cc(C(F)(F)F)ccc1COCC(O)CN1CCC(C(=O)Nc2ccccc2)CC1 (configuration not stated),16000
10,O=C1COc2c(cccc2N2CCN(CC(O)COc3ccccc3C(=O)c3ccccc3)CC2)N1 (configuration not stated),20000
11,O=C1COc2c(cccc2C2CCN(CC(O)COc3ccccc3C(=O)c3ccccc3)CC2)N1 (configuration not stated),7000
12,O=C1CCc2c(cccc2N2CCN(CC(O)COc3ccccc3C(=O)c3ccccc3)CC2)N1 (configuration not stated),17000
13,O=C1CCc2c(cccc2C2CCN(CC(O)COc3ccccc3C(=O)c3ccccc3)CC2)N1 (configuration not stated),18000

# Molecular target: Sodium channel protein type 1 subunit alpha (Homo sapiens, UniProt P35498)
# Experiment: Inhibition of human NaV1.1 by IonWorks quattro automated electrophysiology assay
# Settings: not given
row,Structure (SMILES),IC50 [nM]
1,O=C(c1ccccc1)c1ccc(OCC(O)CN2CCC(N3Cc4ccccc4C3=O)CC2)cc1 (configuration not stated),670
2,O=C1c2ccccc2CN1C1CCN(CC(O)COc2cccc(C(F)(F)F)c2)CC1 (configuration not stated),1200
3,O=C1c2ccccc2CN1C1CCN(CC(O)COc2ccc(C(F)(F)F)cc2)CC1 (configuration not stated),1800
4,COc1cc(C(F)(F)F)ccc1OCC(O)CN1CCC(N2Cc3ccccc3C2=O)CC1 (configuration not stated),910
5,O=C1c2ccccc2CN1C1CCN(CC(O)COCc2ccc(C(F)(F)F)cc2)CC1 (configuration not stated),3000
6,COc1cc(C(F)(F)F)ccc1COCC(O)CN1CCC(N2Cc3ccccc3C2=O)CC1.O=C(O)/C=C/C(=O)O (configuration not stated),1500
7,O=C(NC1CCN(CC(O)COc2ccc(C(F)(F)F)cc2)CC1)c1ccccc1 (configuration not stated),800
8,O=C(Nc1ccccc1)C1CCN(CC(O)COc2ccc(C(F)(F)F)cc2)CC1 (configuration not stated),3100
9,COc1cc(C(F)(F)F)ccc1COCC(O)CN1CCC(C(=O)Nc2ccccc2)CC1 (configuration not stated),3300
10,O=C1COc2c(cccc2N2CCN(CC(O)COc3ccccc3C(=O)c3ccccc3)CC2)N1 (configuration not stated),> 33000
11,O=C1COc2c(cccc2C2CCN(CC(O)COc3ccccc3C(=O)c3ccccc3)CC2)N1 (configuration not stated),4400
12,O=C1CCc2c(cccc2N2CCN(CC(O)COc3ccccc3C(=O)c3ccccc3)CC2)N1 (configuration not stated),21000
13,O=C1CCc2c(cccc2C2CCN(CC(O)COc3ccccc3C(=O)c3ccccc3)CC2)N1 (configuration not stated),7100

# Tested on: Plasma
# Experiment: Fraction unbound in mouse plasma
# Format: ADME, cell-free
# Settings: not given
row,Structure (SMILES),Fu [%]
1,COc1cc(C(F)(F)F)ccc1COCC(O)CN1CCC(N2Cc3ccccc3C2=O)CC1.O=C(O)/C=C/C(=O)O (configuration not stated),5.55
2,COc1cc(C(F)(F)F)ccc1COCC(O)CN1CCC(C(=O)Nc2ccccc2)CC1 (configuration not stated),4.18

# Tested on: not listed separately
# Experiment: Therapeutic index, ratio of toxic ID50 in mouse to analgesic activity ED50 in mouse
# Format: organism-based
# Settings: in vivo, read-out: TI
row,Structure (SMILES),selectivity ratio
1,COc1cc(C(F)(F)F)ccc1COCC(O)CN1CCC(C(=O)Nc2ccccc2)CC1 (configuration not stated),5.8

# Tested on: Mus musculus
# Experiment: Toxicity in po dosed mouse assessed as reduction of locomotor activity
# Format: organism-based
# Settings: in vivo
row,Structure (SMILES),ID50 [mg/kg]
1,COc1cc(C(F)(F)F)ccc1COCC(O)CN1CCC(C(=O)Nc2ccccc2)CC1 (configuration not stated),111

# Tested on: Mus musculus
# Experiment: Toxicity in mouse assessed as reduction of locomotor activity at 100 mg/kg, po
# Format: organism-based
# Settings: in vivo
row,Structure (SMILES),Activity
1,COc1cc(C(F)(F)F)ccc1COCC(O)CN1CCC(N2Cc3ccccc3C2=O)CC1.O=C(O)/C=C/C(=O)O (configuration not stated),Toxic

# Tested on: not listed separately
# Experiment: Tmax in db/db mouse at 30 mg/kg, po
# Format: ADME, organism-based
# Settings: in vivo
row,Structure (SMILES),Tmax [min]
1,COc1cc(C(F)(F)F)ccc1COCC(O)CN1CCC(N2Cc3ccccc3C2=O)CC1.O=C(O)/C=C/C(=O)O (configuration not stated),30
2,COc1cc(C(F)(F)F)ccc1COCC(O)CN1CCC(C(=O)Nc2ccccc2)CC1 (configuration not stated),30

# Molecular target: Sodium channel protein type 9 subunit alpha (Homo sapiens, UniProt Q15858)
# Experiment: Inhibition of human NaV1.7 by IonWorks quattro automated electrophysiology assay
# Settings: not given
row,Structure (SMILES),IC50 [nM]
1,O=C(c1ccccc1)c1ccc(OCC(O)CN2CCC(N3Cc4ccccc4C3=O)CC2)cc1 (configuration not stated),380
2,O=C1c2ccccc2CN1C1CCN(CC(O)COc2cccc(C(F)(F)F)c2)CC1 (configuration not stated),1000
3,O=C1c2ccccc2CN1C1CCN(CC(O)COc2ccc(C(F)(F)F)cc2)CC1 (configuration not stated),500
4,COc1cc(C(F)(F)F)ccc1OCC(O)CN1CCC(N2Cc3ccccc3C2=O)CC1 (configuration not stated),480
5,O=C1c2ccccc2CN1C1CCN(CC(O)COCc2ccc(C(F)(F)F)cc2)CC1 (configuration not stated),1100
6,COc1cc(C(F)(F)F)ccc1COCC(O)CN1CCC(N2Cc3ccccc3C2=O)CC1.O=C(O)/C=C/C(=O)O (configuration not stated),1200
7,O=C(NC1CCN(CC(O)COc2ccc(C(F)(F)F)cc2)CC1)c1ccccc1 (configuration not stated),700
8,O=C(Nc1ccccc1)C1CCN(CC(O)COc2ccc(C(F)(F)F)cc2)CC1 (configuration not stated),1000
9,COc1cc(C(F)(F)F)ccc1COCC(O)CN1CCC(C(=O)Nc2ccccc2)CC1 (configuration not stated),1700
10,O=C1COc2c(cccc2N2CCN(CC(O)COc3ccccc3C(=O)c3ccccc3)CC2)N1 (configuration not stated),3900
11,O=C1COc2c(cccc2C2CCN(CC(O)COc3ccccc3C(=O)c3ccccc3)CC2)N1 (configuration not stated),780
12,O=C1CCc2c(cccc2N2CCN(CC(O)COc3ccccc3C(=O)c3ccccc3)CC2)N1 (configuration not stated),3700
13,O=C1CCc2c(cccc2C2CCN(CC(O)COc3ccccc3C(=O)c3ccccc3)CC2)N1 (configuration not stated),1300

# Organism: Mus musculus
# Experiment: Analgesic activity in mouse assessed as inhibition of acetic acid-induced writhing response
# Format: functional
# Settings: not given
row,Structure (SMILES),ED50 [mg/kg]
1,COc1cc(C(F)(F)F)ccc1COCC(O)CN1CCC(N2Cc3ccccc3C2=O)CC1.O=C(O)/C=C/C(=O)O (configuration not stated),10
2,COc1cc(C(F)(F)F)ccc1COCC(O)CN1CCC(C(=O)Nc2ccccc2)CC1 (configuration not stated),19

# Tested on: not listed separately
# Experiment: Cmax in db/db mouse at 30 mg/kg, po
# Format: ADME, organism-based
# Design: dose 30 mg/kg, route oral
# Settings: in vivo
row,Structure (SMILES),Cmax [ng/mL]
1,COc1cc(C(F)(F)F)ccc1COCC(O)CN1CCC(N2Cc3ccccc3C2=O)CC1.O=C(O)/C=C/C(=O)O (configuration not stated),445
2,COc1cc(C(F)(F)F)ccc1COCC(O)CN1CCC(C(=O)Nc2ccccc2)CC1 (configuration not stated),161

# Molecular target: Sodium channel protein type 1 subunit alpha (Mus musculus, UniProt A2APX8)
# Experiment: Inhibition of mouse NaV1.1 by IonWorks quattro automated electrophysiology assay
# Settings: not given
row,Structure (SMILES),IC50 [nM]
1,COc1cc(C(F)(F)F)ccc1COCC(O)CN1CCC(N2Cc3ccccc3C2=O)CC1.O=C(O)/C=C/C(=O)O (configuration not stated),670
2,COc1cc(C(F)(F)F)ccc1COCC(O)CN1CCC(C(=O)Nc2ccccc2)CC1 (configuration not stated),2400

# Molecular target: Sodium channel protein type 9 subunit alpha (Mus musculus, UniProt Q62205)
# Experiment: Inhibition of mouse NaV1.7 by IonWorks quattro automated electrophysiology assay
# Settings: not given
# Chain of Sodium channel protein type 9 subunit alpha (Mus musculus, UniProt Q62205) (Q62205 whole entry): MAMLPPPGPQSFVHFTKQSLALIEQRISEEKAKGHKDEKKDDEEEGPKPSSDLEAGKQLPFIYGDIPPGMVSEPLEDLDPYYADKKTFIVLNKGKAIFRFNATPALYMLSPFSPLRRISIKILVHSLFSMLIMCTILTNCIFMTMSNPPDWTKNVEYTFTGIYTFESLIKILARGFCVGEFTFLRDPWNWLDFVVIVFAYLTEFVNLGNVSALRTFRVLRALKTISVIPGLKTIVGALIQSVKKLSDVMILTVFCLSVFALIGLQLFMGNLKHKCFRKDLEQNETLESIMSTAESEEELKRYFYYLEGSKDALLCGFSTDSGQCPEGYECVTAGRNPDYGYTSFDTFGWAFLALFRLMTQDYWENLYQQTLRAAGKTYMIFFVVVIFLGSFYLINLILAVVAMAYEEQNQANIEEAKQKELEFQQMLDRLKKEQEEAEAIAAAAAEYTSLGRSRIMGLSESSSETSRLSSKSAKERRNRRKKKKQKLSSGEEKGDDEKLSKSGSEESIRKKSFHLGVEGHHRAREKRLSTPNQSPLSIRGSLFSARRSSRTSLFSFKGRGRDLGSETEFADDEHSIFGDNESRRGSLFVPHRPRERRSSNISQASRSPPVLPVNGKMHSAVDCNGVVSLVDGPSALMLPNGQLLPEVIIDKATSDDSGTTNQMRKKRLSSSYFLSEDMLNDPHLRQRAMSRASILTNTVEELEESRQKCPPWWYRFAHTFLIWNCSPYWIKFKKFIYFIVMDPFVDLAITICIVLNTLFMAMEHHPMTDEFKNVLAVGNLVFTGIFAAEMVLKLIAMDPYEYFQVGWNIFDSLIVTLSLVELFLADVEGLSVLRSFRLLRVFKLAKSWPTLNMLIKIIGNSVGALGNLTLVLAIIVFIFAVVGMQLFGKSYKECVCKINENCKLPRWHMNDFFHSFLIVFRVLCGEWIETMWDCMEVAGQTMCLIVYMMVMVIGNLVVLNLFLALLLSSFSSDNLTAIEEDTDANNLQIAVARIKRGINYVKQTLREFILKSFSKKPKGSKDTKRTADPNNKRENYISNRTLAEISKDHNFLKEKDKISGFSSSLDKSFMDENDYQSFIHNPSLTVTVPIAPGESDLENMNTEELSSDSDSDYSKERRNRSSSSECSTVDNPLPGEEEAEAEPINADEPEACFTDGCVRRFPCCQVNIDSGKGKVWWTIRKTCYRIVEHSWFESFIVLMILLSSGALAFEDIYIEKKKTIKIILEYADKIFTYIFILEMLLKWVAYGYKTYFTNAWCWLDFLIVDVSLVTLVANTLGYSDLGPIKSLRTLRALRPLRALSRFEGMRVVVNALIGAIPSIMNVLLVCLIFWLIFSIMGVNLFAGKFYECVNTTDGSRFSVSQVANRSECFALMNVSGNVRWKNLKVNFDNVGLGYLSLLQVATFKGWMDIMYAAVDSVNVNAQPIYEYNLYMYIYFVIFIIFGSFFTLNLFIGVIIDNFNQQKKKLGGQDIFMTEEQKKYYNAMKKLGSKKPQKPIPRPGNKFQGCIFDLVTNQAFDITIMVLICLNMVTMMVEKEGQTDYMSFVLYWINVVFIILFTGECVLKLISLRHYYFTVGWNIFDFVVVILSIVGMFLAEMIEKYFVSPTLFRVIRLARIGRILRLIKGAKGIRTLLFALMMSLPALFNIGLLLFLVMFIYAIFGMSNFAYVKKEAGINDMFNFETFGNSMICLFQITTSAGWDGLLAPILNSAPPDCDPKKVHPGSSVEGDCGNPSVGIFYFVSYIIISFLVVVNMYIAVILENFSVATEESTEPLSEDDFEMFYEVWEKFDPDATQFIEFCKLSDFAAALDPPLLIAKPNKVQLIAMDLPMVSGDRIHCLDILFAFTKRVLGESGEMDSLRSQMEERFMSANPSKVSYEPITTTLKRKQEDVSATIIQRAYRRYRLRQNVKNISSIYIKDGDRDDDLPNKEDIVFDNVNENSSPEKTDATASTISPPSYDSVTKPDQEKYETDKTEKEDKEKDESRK
row,Structure (SMILES),IC50 [nM]
1,O=C(c1ccccc1)c1ccc(OCC(O)CN2CCC(N3Cc4ccccc4C3=O)CC2)cc1 (configuration not stated),590
2,O=C1c2ccccc2CN1C1CCN(CC(O)COc2cccc(C(F)(F)F)c2)CC1 (configuration not stated),790
3,O=C1c2ccccc2CN1C1CCN(CC(O)COc2ccc(C(F)(F)F)cc2)CC1 (configuration not stated),100
4,COc1cc(C(F)(F)F)ccc1OCC(O)CN1CCC(N2Cc3ccccc3C2=O)CC1 (configuration not stated),330
5,O=C1c2ccccc2CN1C1CCN(CC(O)COCc2ccc(C(F)(F)F)cc2)CC1 (configuration not stated),1500
6,COc1cc(C(F)(F)F)ccc1COCC(O)CN1CCC(N2Cc3ccccc3C2=O)CC1.O=C(O)/C=C/C(=O)O (configuration not stated),790
7,O=C(NC1CCN(CC(O)COc2ccc(C(F)(F)F)cc2)CC1)c1ccccc1 (configuration not stated),400
8,O=C(Nc1ccccc1)C1CCN(CC(O)COc2ccc(C(F)(F)F)cc2)CC1 (configuration not stated),800
9,COc1cc(C(F)(F)F)ccc1COCC(O)CN1CCC(C(=O)Nc2ccccc2)CC1 (configuration not stated),1300
10,O=C1COc2c(cccc2N2CCN(CC(O)COc3ccccc3C(=O)c3ccccc3)CC2)N1 (configuration not stated),5000
11,O=C1COc2c(cccc2C2CCN(CC(O)COc3ccccc3C(=O)c3ccccc3)CC2)N1 (configuration not stated),2100
12,O=C1CCc2c(cccc2N2CCN(CC(O)COc3ccccc3C(=O)c3ccccc3)CC2)N1 (configuration not stated),2400
13,O=C1CCc2c(cccc2C2CCN(CC(O)COc3ccccc3C(=O)c3ccccc3)CC2)N1 (configuration not stated),16000

# Tested on: not listed separately
# Experiment: AUC in db/db mouse at 30 mg/kg, po
# Format: ADME, organism-based
# Settings: in vivo
row,Structure (SMILES),AUC [ng·h/mL]
1,COc1cc(C(F)(F)F)ccc1COCC(O)CN1CCC(N2Cc3ccccc3C2=O)CC1.O=C(O)/C=C/C(=O)O (configuration not stated),1910
2,COc1cc(C(F)(F)F)ccc1COCC(O)CN1CCC(C(=O)Nc2ccccc2)CC1 (configuration not stated),303
